Measurements from patent US11117939B2, “Polypeptides and antibodies to treat skin conditions associated with overproduction of sebum” (University of Sasketchewan, priority 2015, dated 2021).

System: SZ95 sebocytes
Assay: Detection of lipids (nile red fluorescence) in SZ95 sebocytes
Type: cell-based, human
Settings: for production of neutral (sebaceous) lipids: 24 vs 48 hours
Protocol: C., Seltmann, H., Neitzel, H. & Orfanos, C. E. (1999) J. Invest. Dermatol. 113, 1011-1020], were maintained in Sebomed Basal Medium (Biochrom, Berlin) supplemented with 5 ng/ml human epidermal growth factor (Sigma), 10% heat inactivated FCS (Biochrom GmbH, Berlin, Germany), 50 ug/ml gentamicin (GIBCO/BRL), and 1 mM Ca2+, in a humidified atmosphere of 5% CO2 at 37° C. Shortly before the experiments were performed, BSA-medium [constituted of Sebomed Basal Medium supplemented with 1 mg/ml fatty acid-free BSA (Boehringer Mannheim), 1 mM Ca2+, and 10^-6 M linoleic acid (Sigma)] or Sebomed Complete Medium (Biochrom) was added to the cells. The SZ95 human sebocytes used for the experiments were between passages 31 and 35. The cells were subcultured at 60-70% confluence. The cultures were maintained at 37° C. in a humidified 5% CO2 incubator and the medium was replaced every 2-3 days.
The cells were cultured in 96-well tissue culture plates at a density of 2,000 cells per well for 2 days. The wells were then washed with PBS, and Sebomed Complete Medium was added. After 2 days, the medium was harvested, and fresh medium without or with INDIP peptide (SEQ ID NO: 2) at a concentration of 0, 0.1, 1, 10, or 20 μM in the presence and absence of Linoleic acid (5×10^−5 and 10^−4 M) and Testosterone (2×10^−8 M) was given to the cells. The supernatants were harvested 24 or 48 h later; the wells were washed twice with PBS, and 100 μl of a 10 μg/ml nile red solution in PBS was added to each well. 10 uM of scrambled INDIP peptide (i.e. a scrambled version of SEQ ID NO: 2) was used as the negative control peptide. The plates were then incubated at 37° C. for 30 min, and the released fluorescence was read on a Molecular Devices SPECTRAmax Gemini spectrofluorometer. The results are presented as percentages of the absolute fluorescence units in comparison with the controls, using 485 nm excitation and 565 nm emission filters for neutral lipids and 540 nm excitation and 620 nm emission filters for polar lipids. Experiments were performed in triplicate, with 10 wells evaluated for each data point in each experiment.

Sequence: YGRKKRRQRRRGEPHKFKREW ((1)..(11) Tat; (12)..(21) Insig-1) [INDIP peptide (SEQ ID NO: 2), PTD-fused (TAT protein transduction domain) Insig-1 ubiquitination region peptide]
- production of neutral (sebaceous) lipids (10 μM peptide, occasionally, absence or presence of linoleic acid and testosterone): significantly reduced
- production of neutral (sebaceous) lipids (20 μM peptide, greater effect as time progressed, absence or presence of linoleic acid and testosterone): significantly reduced
- sebaceous differentiation (all conditions tested, with and without linoleic acid and testosterone): able to reduce
- lipid production (application to SZ95 sebocytes in vitro): Significant Reduction
- polar lipids (membrane synthesis, synthetic activity of the cells) (concomitant with the neutral lipid reduction, absence or presence of linoleic acid and testosterone): concomitant reduction
